Residues, ends and D or L forms follow the SMILES beside them.

For one assay, the system named is DENV-2/NGC. Kind of assay: Dengue replication (plaque) assay in VERO cells. The assay is classed as cell-based, Dengue virus. The protocol: 1×10^6 Vero E6 cells were plated per well into a 6-wells plate and incubated overnight at 37° C. Next day, the DENV-2/NGC virus stock was diluted to 10^4 TICD50/ml, 10^3 TICD50/ml, 10^2 TICD50/ml and 1 ml of the respective virus dilutions was added to each well. Wells contained approximately 80% confluent monolayers of Vero cells. After an incubation period of 1 hour at 37° C., cells were washed twice with medium (DMEM) and medium containing 2% methyl cellulose was added to the wells. To this medium C16-KAK-C16 10 uM was added (W) in DMSO, or an equivalent amount of DMSO (0.05%) was added (W/O). Plate was incubated at 37° C. for two days. Methyl cellulose overlays were removed and cells were fixed with absolute ethanol. Cells were subsequently incubated with specific DENY monoclonal antibody for 1 hour at 37° C., followed by incubation with HRPO-labeled rabbit-anti mouse conjugate. Positive plaques were counted after incubation with AEC substrate chromogen.
The experiment was performed as described in the legend of FIG. 8 at a viral dose of 10^3 TICD50/ml in all plates.
C16-KAK-C16 was subsequently tested in a standard Dengue replication (plaque) assay in VERO cells (FIG. 8). […] In a separate experiment this was confirmed with a constant intermediate viral load of and different concentrations of C16-KAK-C16 (FIG. 9)

In assay [1] the target is T1, Dengue NS3-NS2B peptidase (Dengue virus type 2, UniProt P14340).
T1 construct: The active site of the dengue protease is in the N-terminal part of NS3
T1 sequence (P14340 1476-1653): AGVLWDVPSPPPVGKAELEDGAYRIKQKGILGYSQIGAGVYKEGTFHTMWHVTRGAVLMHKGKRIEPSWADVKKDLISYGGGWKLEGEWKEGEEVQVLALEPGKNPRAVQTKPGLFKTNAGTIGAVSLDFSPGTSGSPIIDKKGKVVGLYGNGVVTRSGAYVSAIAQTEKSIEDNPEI
Kind of assay: Dengue NS3-NS2B peptidase hydrolysis of Abz-AKRRSQ-EDDnp. The assay is classed as biochemical. The settings on record: 50 mM Tris-HCl pH 9.0, FIG. 5. Here is the method:
FIG. 5A, FIG. 5B and FIG. 5C show Dengue NS3-NS2B peptidase hydrolysis of Abz-AKRRSQ-EDDnp (SEQ ID NO:1) in 50 mM Tris-HCl pH 9.0. FIG. 5A Inhibitors: (◯) C16-KAAK-C16 (SEQ ID NO:42), (▪)C16-KAK-C16, (▴)C16-KGGK-C16(SEQ ID NO:41). FIG. 5B Substrates: (◯) Abz AKRRSQ-EDDnp (SEQ ID NO:1) and (●) Suc AAPF-MCA with different concentrations of C16-KGGK-C16 (SEQ ID NO:41). FIG. 5C Followed in time at different C16-KGGK-C16 (SEQ ID NO:41) concentrations.
FIG. 6A and FIG. 6B show Dengue NS3-NS2B peptidase hydrolysis of Abz AKRRSQ-EDDnp (SEQ ID NO:1) in the presence of C16-KK-C16 (KR), C16-KAK-C16 (KAK), C16-KAAK-C16 (KAAK; (SEQ ID NO:42)), C16-KAAAAK-C16 (KAAAAK; (SEQ ID NO:53)), C16-KGK-C16 (KOK), C16-KGGK-C16 (KOOK; (SEQ ID NO:41)), and C16-KGGGK-C16 (KGGGK; (SEQ ID NO:40)). “◯” means enzyme activity without inhibitor. FIG. 6A E+K means that the inhibitor+enzyme were pre-incubated for 0, 15 and 30 min and then the substrate was added. FIG. 6B K means that the inhibitor was pre-incubated for 0, 15 and 30 min and then the enzyme and substrate were added.
The best substrate for dengue protease is Abz-AKRR↓SQ-EDDnp (SEQ ID NO:1) [Gouvea et al., 2007]. […] Geminoids with either G or A are inhibitors of Dengue protease, but which is the better inhibitor does depend on the nature of the substrates (compare FIG. 5a and Table 1). […]

In the case of `CCCCCCCCCCCCCCCCNC(=O)[C@H](CCCCN)NC(=O)[C@H](C)NC(=O)[C@H](CCCCN)NC(=O)CCCCCCCCCCCCCCC` [C16-KAK-C16], in the assay with DENV-2/NGC (10 uM, Vero E6 cells, DENV-2/NGC 10^2-10^4 TICD50/ml, two days, depending on the viral load), the “inhibition of plaque formation” value is given as “up to 90%”. In addition, the “virus replication (in words)” value with DENV-2/NGC (VERO cells, DENV-2/NGC) is recorded as “significant reduction of virus replication”. Take `CCCCCCCCCCCCCCCCNC(=O)[C@H](CCCCN)NC(=O)CNC(=O)CNC(=O)[C@H](CCCCN)NC(=O)CCCCCCCCCCCCCCC` [C16-KGGK-C16, C15H31CO-KGGK-NH—C16H33] (HELM PEPTIDE1{[CCCCCCCCCCCCCCCC(=O)[*:2]].K.G.G.K.[CCCCCCCCCCCCCCCCN[*:1]]}$$$$V2.0): in assay [1], the “inhibition of Dengue protease with substrate Abz-AKRRSQ-EDDnp (in words)” value is on record as “does not depend on the choice of substrate”.

Source of the values: US20220017572A1, “GEMINOID LIPOPEPTIDE COMPOUNDS AND THEIR USES” (Erasmus University Medical Center Rotterdam, priority 2016, published 2022).
